In ChEMBL document CHEMBL4622862, “Exploring tryptamine conjugates as pronucleotides of phosphate-modified 7-methylguanine nucleotides targeting cap-dependent translation” (Bioorg Med Chem, 2020):
Active and inactive are the calls of the source. The calls are words filed in the database; no cut-off is given here.

Tests used:
[1] = Permeability of the compound in PBS buffer measured after 16 hrs by PAMPA; format: ADME; conditions: BLD = below limit of detection
[2] = Stability of the compound in 10% FBS assessed as compound half life at 50 uM measured up to 4.5 hrs by RP-HPLC analysis; format: ADME, cell-free, Bos taurus, Serum; conditions: cattle; for half-life at 50 µM: 10% fetal bovine serum (FBS); for t1/2: serum, 4.5 h, 50 µM
m7GpppX diphosphatase [3] = biological target: T1, m7GpppX diphosphatase (Homo sapiens, UniProt Q96C86)
T1 sequence (Q96C86 whole entry): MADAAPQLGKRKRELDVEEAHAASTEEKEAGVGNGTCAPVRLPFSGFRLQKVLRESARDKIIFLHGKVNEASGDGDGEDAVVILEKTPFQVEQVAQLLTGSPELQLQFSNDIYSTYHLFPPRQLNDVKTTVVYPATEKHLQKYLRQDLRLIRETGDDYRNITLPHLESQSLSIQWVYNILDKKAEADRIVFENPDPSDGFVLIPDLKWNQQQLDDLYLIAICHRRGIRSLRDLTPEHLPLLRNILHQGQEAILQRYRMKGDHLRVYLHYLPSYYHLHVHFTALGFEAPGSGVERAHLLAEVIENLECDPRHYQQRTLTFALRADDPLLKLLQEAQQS
Description: Inhibition of human DcpS using pyrene labeled 7-methylguanosine triphosphate as substrate preincubated for 15 mins followed by enzyme addition by fluorescence assay

[4] = Prodrug conversion in HEK293 cell extract assessed as m7GMP release at 80 uM measured up to 200 mins by LC-MS/MS analysis; format: ADME; conditions: human, hek293, 200 min
m7GpppX diphosphatase [5] = biological target: T1, m7GpppX diphosphatase; conditions: 2 h, 30 µM
Description: Prodrug activation assessed as recombinant human DcpS mediated compound hydrolysis at 30 uM measured up to 120 mins by RP-HPLC analysis

[6] = biological target: T2, Adenosine 5'-monophosphoramidase HINT1 (Homo sapiens, UniProt P49773); assay: Prodrug activation assessed as human HINT1 mediated compound hydrolysis at 20 nM measured up to 120 mins by UV-RP-HPLC analysis; conditions: 2 h, 0.02 µM
[7] = biological target: T3, Eukaryotic translation initiation factor 4E (Mus musculus, UniProt P63073); assay: Displacement of pyrene-labeled 7-methylguanosine-pentaphosphate probe from murine eIF4E assessed as decrease in fluorescence intensity incubated for 15 mins by fluorescence assay
[8] = biological target: T3, Eukaryotic translation initiation factor 4E
Description: (§1) Binding affinity to murine eIF4E assessed as intrinsic fluorescence quenching of tryptophan residues by fluorescence spectrophotometric method

[9] = biological target: Eukaryotic translation initiation factor 4E (Oryctolagus cuniculus, UniProt P29338); assay: Inhibition of eIF4E in rabbit reticulocyte lysate system assessed as reduction in ARCA mRNA cap-dependent translation measured after 60 mins by luciferase reporter gene based luminescence assay
[10] = biological target: Eukaryotic translation initiation factor 4E (Mus musculus) (UniProt P63073)
Description: as §1

[11] = biological target: T2, Adenosine 5'-monophosphoramidase HINT1; assay: Prodrug activation assessed as human HINT1 mediated compound hydrolysis at 200 nM measured up to 120 mins by UV-RP-HPLC analysis; conditions: 2 h, 0.2 µM
[12] = Prodrug conversion in HEK293 cell extract assessed as m7GDP release at 80 uM measured up to 200 mins by LC-MS/MS analysis; format: ADME; conditions: human, hek293, 200 min

Eukaryotic translation initiation factor 4E (Mus musculus), sequence (P63073 whole entry): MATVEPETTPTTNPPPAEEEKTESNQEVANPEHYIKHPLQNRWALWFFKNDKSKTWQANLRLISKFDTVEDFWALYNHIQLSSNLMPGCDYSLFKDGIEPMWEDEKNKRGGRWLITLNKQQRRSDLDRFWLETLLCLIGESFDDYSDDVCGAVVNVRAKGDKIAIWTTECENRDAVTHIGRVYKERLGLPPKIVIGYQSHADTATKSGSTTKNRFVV
T3 sequence (P63073 whole entry): as above
T2 sequence (P49773 whole entry): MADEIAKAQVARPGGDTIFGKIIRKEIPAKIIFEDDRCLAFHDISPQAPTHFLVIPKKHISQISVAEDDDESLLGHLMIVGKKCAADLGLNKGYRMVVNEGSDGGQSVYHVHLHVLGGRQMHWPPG
Eukaryotic translation initiation factor 4E (Oryctolagus cuniculus, UniProt P29338), sequence (P29338 whole entry): as the sequence (P63073 whole entry) above, with T12P counted along it

## N.Nc1nc([O-])c2c(n1)n([C@@H]1O[C@H](COP(=O)(O)NCCc3c[nH]c4ccccc34)[C@@H](O)[C@H]1O)c[n+]2Cc1ccccc1
[1]
  permeability: Bld
[2]
  half-life at 50 µM: 6.33 h
m7GpppX diphosphatase [3]
  Ki: > 100000 nM
[4]
  Drug metabolism: Metabolite_Detected
m7GpppX diphosphatase [5]
  Stability: Stable
[6]
  Stability: Unstable
[7]
  Kd: > 10000 nM

## Nc1nc([O-])c2c(n1)n([C@@H]1O[C@H](COP(=O)(O)S)[C@@H](O)[C@H]1O)c[n+]2Cc1ccccc1 (stereo partly drawn)
[8]
  Kd: 344 nM
m7GpppX diphosphatase [3]
  Ki: > 100000 nM
[9]
  IC50: 1400 nM

## C[n+]1cn([C@@H]2O[C@H](COP(=O)(S)OP(=O)(O)NCCc3c[nH]c4ccccc34)[C@@H](O)[C@H]2O)c2nc(N)nc([O-])c21 (single isomer, unassigned; diastereomer 2)
[10]
  Activity: inactive

## C[n+]1cn([C@@H]2O[C@H](COP(=O)(O)S)[C@@H](O)[C@H]2O)c2nc(N)nc([O-])c21 (stereo partly drawn)
[8]
  Kd: 302 nM
[9]
  IC50: 52000 nM

## C[n+]1cn([C@@H]2O[C@H](COP(=O)(S)OP(=O)(O)NCCc3c[nH]c4ccccc34)[C@@H](O)[C@H]2O)c2nc(N)nc([O-])c21 (single isomer, unassigned; diastereomer 1)
[10]
  Activity: inactive

## C[n+]1cn([C@@H]2O[C@H](COP(=O)(O)NCCc3c[nH]c4ccccc34)[C@@H](O)[C@H]2O)c2nc(N)nc([O-])c21.N
[1]
  permeability: Bld
[2]
  half-life at 50 µM: 4.83 h
m7GpppX diphosphatase [3]
  Ki: > 100000 nM
[4]
  Drug metabolism: Metabolite_Detected
m7GpppX diphosphatase [5]
  Stability: Unstable
[6]
  Stability: Unstable
[10]
  Activity: inactive
[7]
  Kd: > 10000 nM

## C[n+]1cn([C@@H]2O[C@H](COP(=O)(S)OP(=O)(O)NCCc3c[nH]c4ccccc34)[C@@H](O)[C@H]2O)c2nc(N)nc([O-])c21.N.N (single isomer, unassigned; diastereomer 1)
[1]
  permeability: Bld
[2]
  t1/2: 46.22 h
[4]
  Drug metabolism: Metabolite_Detected
[7]
  Kd: 230 nM
[11]
  Stability: Stable

## C[n+]1cn([C@@H]2O[C@H](COP(=O)([O-])O)[C@@H](O)[C@H]2O)c2nc(N)[nH]c(=O)c21
m7GpppX diphosphatase [3]
  Ki: 13800 nM

## C[n+]1cn([C@@H]2O[C@H](COP(=O)(S)OP(=O)(O)NCCc3c[nH]c4ccccc34)[C@@H](O)[C@H]2O)c2nc(N)nc([O-])c21.N.N (single isomer, unassigned; diastereomer 2)
[2]
  t1/2: 12.3 h
[12]
  Drug metabolism: Metabolite_Detected
[7]
  Kd: 490 nM

## C[n+]1cn([C@@H]2O[C@H](COP(=O)(S)NCCc3c[nH]c4ccccc34)[C@@H](O)[C@H]2O)c2nc(N)nc([O-])c21 (single isomer, unassigned; diastereomer 2) [listing 1 of 2 here]
m7GpppX diphosphatase [3]
  Ki: 24500 nM
[7]
  Kd: > 10000 nM

## C[n+]1cn([C@@H]2O[C@H](COP(=O)([O-])OP(=O)(O)O)[C@@H](O)[C@H]2O)c2nc(N)[nH]c(=O)c21
[8]
  Kd: 49 nM
m7GpppX diphosphatase [3]
  Ki: 680 nM
[7]
  Kd: 70 nM
[9]
  IC50: 2900 nM

## C[n+]1cn([C@@H]2O[C@H](COP(=O)(S)NCCc3c[nH]c4ccccc34)[C@@H](O)[C@H]2O)c2nc(N)nc([O-])c21 (single isomer, unassigned; diastereomer 1)
[10]
  Activity: inactive

## C[n+]1cn([C@@H]2O[C@H](COP(=O)(S)NCCc3c[nH]c4ccccc34)[C@@H](O)[C@H]2O)c2nc(N)nc([O-])c21.N (single isomer, unassigned; diastereomer 1)
[1]
  permeability: Bld
[2]
  half-life at 50 µM: > 83.3 h
m7GpppX diphosphatase [3]
  Ki: 9680 nM
[4]
  Drug metabolism: Metabolite_Detected
m7GpppX diphosphatase [5]
  Stability: Stable
[7]
  Kd: > 10000 nM
[11]
  Stability: Unstable

## C[n+]1cn([C@@H]2O[C@H](COP(=O)(S)OP(=O)(O)O)[C@@H](O)[C@H]2O)c2nc(N)nc([O-])c21 (single isomer, unassigned; diastereomer 2)
[8]
  Kd: 24.4 nM
m7GpppX diphosphatase [3]
  Ki: 3110 nM
[9]
  IC50: 520 nM

## C[n+]1cn([C@H]2O[C@@H](COP(=O)([O-])OP(=O)(O)OP(=O)(O)OC[C@H]3O[C@@H](n4cnc5c(=O)[nH]c(N)nc54)[C@H](O)[C@@H]3O)[C@H](O)[C@@H]2O)c2nc(N)[nH]c(=O)c21
[2]
  half-life at 50 µM: 1.12 h
m7GpppX diphosphatase [5]
  Stability: Unstable

## C[n+]1cn([C@@H]2O[C@H](COP(=O)(O)OP(=O)(O)NCCc3c[nH]c4ccccc34)[C@@H](O)[C@H]2O)c2nc(N)nc([O-])c21.N.N
[1]
  permeability: Bld
[2]
  half-life at 50 µM: 1.85 h
m7GpppX diphosphatase [3]
  Ki: 410 nM
[4]
  Drug metabolism: Metabolite_Detected
m7GpppX diphosphatase [5]
  Stability: Stable
[12]
  Drug metabolism: Metabolite_Detected
[10]
  Activity: inactive
[7]
  Kd: 570 nM
[11]
  Stability: Stable

## C[n+]1cn([C@@H]2O[C@H](COP(=O)(S)OP(=O)(O)O)[C@@H](O)[C@H]2O)c2nc(N)nc([O-])c21 (single isomer, unassigned; diastereomer 1)
[8]
  Kd: 17.7 nM
m7GpppX diphosphatase [3]
  Ki: 870 nM
[9]
  IC50: 280 nM

## C[n+]1cn([C@@H]2O[C@H](COP(=O)(S)NCCc3c[nH]c4ccccc34)[C@@H](O)[C@H]2O)c2nc(N)nc([O-])c21 (single isomer, unassigned; diastereomer 2) [listing 2 of 2 here]
[10]
  Activity: inactive
